Reference: patent publication US20240239781A1, “1H-PYRAZOLE DERIVATIVES AS SIGMA LIGANDS” (ACONDICIONAMIENTO TARRASENSE, priority 2021, published 2024)

Assays:
human σ1 receptor = molecular target: T1, human σ1 receptor (Homo sapiens, UniProt Q99720); test: Human σ1 receptor radioligand assay ([3H](+)-pentazocine, transfected HEK-293 membranes); conditions: class scale, read-out: Binding σ-1 Ki
T1 construct: expressed in transfected cells; host or cells: HEK-293
Procedure, shortened: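 Membranes (7 μg) from transfected HEK-293 cells were incubated with 5 nM [3H](+)-pentazocine in 50 mM Tris-HCl, pH 8, for 120 minutes at 37° C, with 10 μM haloperidol defining non-specific binding. Bound radioactivity was filtered and counted by scintillation. Results are % inhibition at 1 or 10 μM or Ki from five concentrations.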

human σ2/TMEM97 receptor = molecular target: T2, human σ2/TMEM97 receptor (Homo sapiens, UniProt Q5BJF2); test: Binding assay to human σ2/TMEM97 receptor ([3H]-DTG, transfected HEK-293 membranes); conditions: class scale, read-out: Binding σ-2 Ki
T2 construct: expressed in transfected cells; host or cells: HEK-293
T2 sequence (Q5BJF2 whole entry): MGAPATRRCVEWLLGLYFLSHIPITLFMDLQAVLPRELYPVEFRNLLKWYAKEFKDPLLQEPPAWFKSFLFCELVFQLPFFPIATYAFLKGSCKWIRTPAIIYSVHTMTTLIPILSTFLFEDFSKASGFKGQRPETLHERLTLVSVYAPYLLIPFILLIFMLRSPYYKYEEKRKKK
Procedure, shortened: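 Membranes (15 μg) from transfected HEK-293 incubated 120 min at 25 °C with 10 nM [3H]-DTG in 50 mM Tris-HCl pH 8.0; nonspecific binding with 10 μM haloperidol. Filtration and scintillation counting; % inhibition at 1 or 10 μM, or Ki from five concentrations.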

T1 sequence (Q99720 whole entry): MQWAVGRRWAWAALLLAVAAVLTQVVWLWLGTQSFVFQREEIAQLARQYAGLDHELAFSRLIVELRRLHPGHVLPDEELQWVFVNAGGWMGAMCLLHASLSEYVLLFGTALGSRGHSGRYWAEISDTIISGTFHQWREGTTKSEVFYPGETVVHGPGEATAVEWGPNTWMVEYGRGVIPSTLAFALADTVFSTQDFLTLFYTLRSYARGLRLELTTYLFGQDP

Ki (human σ1 receptor) [nM] | Ki (human σ2/TMEM97 receptor) [nM] | Compound
100 to 500 | < 100 | COc1cccc(-c2nn(C)c(Cl)c2C(=O)N2CCC3(CCN(CCC(C)(C)C)CC3)CC2)n1 [Example 102, (5-Chloro-3-(6-methoxypyridin-2-yl)-1-methyl-1H-pyrazol-4-yl)(9-(3,3-dimethylbutyl)-3,9-diazaspiro[5.5]undecan-3-yl)methanone]
500 to 1000 | < 100 | Cc1conc1-c1nn(C)c(Cl)c1C(=O)N1CCCC2(CCN(CCC(C)(C)C)CC2)C1 [Example 103, (5-Chloro-1-methyl-3-(4-methylisoxazol-3-yl)-1H-pyrazol-4-yl)(9-(3,3-dimethylbutyl)-2,9-diazaspiro[5.5]undecan-2-yl)methanone]
100 to 500 | 100 to 500 | Cc1cc(-c2nn(C)c(Cl)c2C(=O)N2CC3(CCN(CCC(C)(C)C)CC3)C2)no1 [Example 104, (5-Chloro-1-methyl-3-(5-methylisoxazol-3-yl)-1H-pyrazol-4-yl)(7-(3,3-dimethylbutyl)-2,7-diazaspiro[3.5]nonan-2-yl)methanone]
> 1000 | 100 to 500 | Cc1cc(-c2nn(C)c(Cl)c2C(=O)N2CCC3(CN(CCC(C)(C)C)C3)C2)no1 [Example 105, (5-Chloro-1-methyl-3-(5-methylisoxazol-3-yl)-1H-pyrazol-4-yl)(2-(3,3-dimethylbutyl)-2,6-diazaspiro[3.4]octan-6-yl)methanone]
100 to 500 | < 100 | Cc1cc(-c2nn(C)c(Cl)c2C(=O)NC2CC3(CCN(CCC(C)(C)C)CC3)C2)no1 [Example 106, 5-Chloro-N-(7-(3,3-dimethylbutyl)-7-azaspiro[3.5]nonan-2-yl)-1-methyl-3-(5-methylisoxazol-3-yl)-1H-pyrazole-4-carboxamide]
100 to 500 | < 100 | Cc1cc(-c2nn(C)c(Cl)c2C(=O)NC2CCC3(CC2)CCN(CCC(C)(C)C)CC3)no1 [Example 107, 5-Chloro-N-(3-(3,3-dimethylbutyl)-3-azaspiro[5.5]undecan-9-yl)-1-methyl-3-(5-methylisoxazol-3-yl)-1H-pyrazole-4-carboxamide]
100 to 500 | > 1000 | Cc1cc(-c2nn(C)c(Cl)c2C(=O)N2CCC[C@@H](NCCC(C)C)C2)no1 [Example 108, (R)-(5-Chloro-1-methyl-3-(5-methylisoxazol-3-yl)-1H-pyrazol-4-yl)(3-(isopentylamino)piperidin-1-yl)methanone]
> 1000 | > 1000 | Cc1cc(-c2nn(C)c(Cl)c2C(=O)N2CCC[C@H](NCCC(C)C)C2)no1 [Example 109, (S)-(5-Chloro-1-methyl-3-(5-methylisoxazol-3-yl)-1H-pyrazol-4-yl)(3-(isopentylamino)piperidin-1-yl)methanone]
500 to 1000 | 100 to 500 | Cc1cc(-c2nn(C)c(Cl)c2C(=O)N2CCCCC(N(C)CCc3ccccc3)C2)no1 (stereo not shown) [Example 110, (5-Chloro-1-methyl-3-(5-methylisoxazol-3-yl)-1H-pyrazol-4-yl)(3-(methyl(phenethyl)amino)azepan-1-yl)methanone]
100 to 500 | 500 to 1000 | Cc1cc(-c2nn(C)c(Cl)c2C(=O)N2CCCCC(N(C)CCC(C)C)C2)no1 (stereo not shown) [Example 111, (5-Chloro-1-methyl-3-(5-methylisoxazol-3-yl)-1H-pyrazol-4-yl)(3-(isopentyl(methyl)amino)azepan-1-yl)methanone]

The next lines start with the molecule.

Compound | Ki (human σ1 receptor) [nM] | Ki (human σ2/TMEM97 receptor) [nM]
Cc1cc(-c2nn(C)c(Cl)c2C(=O)N2CCCC(CNCCC(C)(C)C)C2)no1 (stereo not shown) [Example 83, (5-Chloro-1-methyl-3-(5-methylisoxazol-3-yl)-1H-pyrazol-4-yl)(3-(((3,3-dimethylbutyl)amino)methyl)piperidin-1-yl)methanone] | 500 to 1000 | < 100
Cc1cc(-c2nn(C)c(Cl)c2C(=O)N2CCCCC(NCCC(C)C)C2)no1 (stereo not shown) [Example 84, (5-Chloro-1-methyl-3-(5-methylisoxazol-3-yl)-1H-pyrazol-4-yl)(3-(isopentylamino)azepan-1-yl)methanone] | > 1000 | 100 to 500
Cc1cc(-c2nn(C)c(Cl)c2C(=O)N2CCCCC(NCCc3ccccc3)C2)no1 (stereo not shown) [Example 85, (5-Chloro-1-methyl-3-(5-methylisoxazol-3-yl)-1H-pyrazol-4-yl)(3-(phenethylamino)azepan-1-yl)methanone] | > 1000 | 100 to 500
Cc1cc(-c2nn(C)c(Cl)c2C(=O)N2CCCCC(NCc3ccccc3)C2)no1 (stereo not shown) [Example 86, (3-(Benzylamino)azepan-1-yl)(5-chloro-1-methyl-3-(5-methylisoxazol-3-yl)-1H-pyrazol-4-yl)methanone] | > 1000 | 100 to 500
Cc1cc(-c2nn(C)c(Cl)c2C(=O)N2CCC3(CCN(CCC(C)(C)C)C3)CC2)no1 [Example 87, (5-Chloro-1-methyl-3-(5-methylisoxazol-3-yl)-1H-pyrazol-4-yl)(2-(3,3-dimethylbutyl)-2,8-diazaspiro[4.5]decan-8-yl)methanone] | 500 to 1000 | < 100
Cc1cc(-c2nn(C)c(Cl)c2C(=O)N2CCC3(CCN(CCC(C)(C)C)CC3)CC2)no1 [Example 88, (5-Chloro-1-methyl-3-(5-methylisoxazol-3-yl)-1H-pyrazol-4-yl)(9-(3,3-dimethylbutyl)-3,9-diazaspiro[5.5]undecan-3-yl)methanone] | 500 to 1000 | < 100
Cc1cc(-c2nn(C)c(Cl)c2C(=O)N2CCC3(CCN(CC(C)C)CC3)CC2)no1 [Example 89, (5-Chloro-1-methyl-3-(5-methylisoxazol-3-yl)-1H-pyrazol-4-yl)(9-isobutyl-3,9-diazaspiro[5.5]undecan-3-yl)methanone] | > 1000 | > 1000
Cc1cc(-c2nn(C)c(Cl)c2C(=O)N2CCC3(CCN(CCC(C)C)CC3)CC2)no1 [Example 90, (5-Chloro-1-methyl-3-(5-methylisoxazol-3-yl)-1H-pyrazol-4-yl)(9-isopentyl-3,9-diazaspiro[5.5]undecan-3-yl)methanone] | 500 to 1000 | 100 to 500
Cc1cc(-c2nn(C)c(Cl)c2C(=O)N2CCC3(CCCN(CCC(C)(C)C)C3)CC2)no1 [Example 91, (5-Chloro-1-methyl-3-(5-methylisoxazol-3-yl)-1H-pyrazol-4-yl)(2-(3,3-dimethylbutyl)-2,9-diazaspiro[5.5]undecan-9-yl)methanone] | 500 to 1000 | < 100
Cc1cc(-c2nn(C)c(Cl)c2C(=O)N2CCCC3(CCN(CCC(C)(C)C)CC3)C2)no1 [Example 92, (5-Chloro-1-methyl-3-(5-methylisoxazol-3-yl)-1H-pyrazol-4-yl)(9-(3,3-dimethylbutyl)-2,9-diazaspiro[5.5]undecan-2-yl)methanone] | < 100 | < 100
Cc1cc(-c2nn(C)c(Cl)c2C(=O)N2CCC3(CCC(NCCC(C)C)CC3)CC2)no1 [Example 93, (5-Chloro-1-methyl-3-(5-methylisoxazol-3-yl)-1H-pyrazol-4-yl)(9-(isopentylamino)-3-azaspiro[5.5]undecan-3-yl)methanone] | > 1000 | 100 to 500
Cc1cc(-c2nn(C)c(Cl)c2C(=O)N2CCC3(CCN(CCC(C)(C)C)CC3)C2)no1 [Example 94, (5-Chloro-1-methyl-3-(5-methylisoxazol-3-yl)-1H-pyrazol-4-yl)(8-(3,3-dimethylbutyl)-2,8-diazaspiro[4.5]decan-2-yl)methanone] | > 1000 | 100 to 500
Cc1cc(-c2nn(C)c(Cl)c2C(=O)N2CCCC(CNCC(C)C)C2)no1 (stereo not shown) [Example 95, (5-Chloro-1-methyl-3-(5-methylisoxazol-3-yl)-1H-pyrazol-4-yl)(3-((isobutylamino)methyl)piperidin-1-yl)methanone] | > 1000 | > 1000
Cc1cc(-c2nn(C)c(Cl)c2C(=O)N2CCC3(CCC(NCCC(C)(C)C)CC3)CC2)no1 [Example 96, (5-Chloro-1-methyl-3-(5-methylisoxazol-3-yl)-1H-pyrazol-4-yl)(9-((3,3-dimethylbutyl)amino)-3-azaspiro[5.5]undecan-3-yl)methanone] | > 1000 | 100 to 500
CCc1cc(-c2nn(C)c(Cl)c2C(=O)N2CCC3(CCN(CCC(C)(C)C)CC3)CC2)no1 [Example 97, (5-Chloro-3-(5-ethylisoxazol-3-yl)-1-methyl-1H-pyrazol-4-yl)(9-(3,3-dimethylbutyl)-3,9-diazaspiro[5.5]undecan-3-yl)methanone] | 100 to 500 | < 100
Cc1cc(-c2nn(C)c(F)c2C(=O)N2CCC3(CCN(CCC(C)(C)C)CC3)CC2)no1 [Example 98, (9-(3,3-Dimethylbutyl)-3,9-diazaspiro[5.5]undecan-3-yl)(5-fluoro-1-methyl-3-(5-methylisoxazol-3-yl)-1H-pyrazol-4-yl)methanone] | 500 to 1000 | < 100
CCn1nc(-c2cc(C)on2)c(C(=O)N2CCC3(CCN(CCC(C)(C)C)CC3)CC2)c1Cl [Example 99, (5-Chloro-1-ethyl-3-(5-methylisoxazol-3-yl)-1H-pyrazol-4-yl)(9-(3,3-dimethylbutyl)-3,9-diazaspiro[5.5]undecan-3-yl)methanone] | 500 to 1000 | < 100
Cc1conc1-c1nn(C)c(Cl)c1C(=O)N1CCC2(CCN(CCC(C)(C)C)CC2)CC1 [Example 100, (5-Chloro-1-methyl-3-(4-methylisoxazol-3-yl)-1H-pyrazol-4-yl)(9-(3,3-dimethylbutyl)-3,9-diazaspiro[5.5]undecan-3-yl)methanone] | 500 to 1000 | < 100
Cc1cc(-c2nn(-c3ccccc3)c(Cl)c2C(=O)N2CCC3(CCN(CCC(C)(C)C)CC3)CC2)no1 [Example 101, (5-Chloro-3-(5-methylisoxazol-3-yl)-1-phenyl-1H-pyrazol-4-yl)(9-(3,3-dimethylbutyl)-3,9-diazaspiro[5.5]undecan-3-yl)methanone] | < 100 | < 100
